We go through eleven molecules from patent publication US10816552B2 (The Governing Council of the University of Toronto, priority 2014, dated 2020).

Series [1] can be described thus: 1H NMR stability in d-DMSO under dry ambient atmosphere, 24 h. In kind it is physicochemical. To be noted: for degradation over 24 hours (1H NMR): 24 hr incubation. How it is done:
FIGS. 2A-C show the results of ^1H NMR stability experiments for exemplary compounds 1-11. (A) Compounds 1, 2 and 7. (B) Compounds 3, 4, 5 and 6. (C) Compounds 8, 9, 10 and 11. The organotellurium compounds (˜150 μM) were dissolved in d-DMSO with 1,3,5-trioxane, the secondary internal standard. The compounds were kept in clear glass 20 mL vials. The vials were kept in a moisture free environment for 24 hours with continuous supply of ambient atmosphere dried using a series of bubblers containing phosphoric acid, potassium hydroxide and calcium sulfate. Aliquots were analyzed by ^1H NMR and the organotellurium signals and the d5-H-DMSO peaks were integrated. The ratio between the DMSO and the organotellurium protons at time 0 were taken and normalized to generate a degradation plot. Experimental error was calculated by generating triplicate integration data from each individual preliminary NMR data. This error takes into consideration of integration bias and instrument fluctuations.
The relative chemical stability of the methyl telluroethers (1-4) were quantified using ^1H NMR by integration of the CH3—Te signals with respect to a residual DMSO-d5 internal standard. Samples were prepared in a solution of DMSO-d6 and placed under a slow continuous stream of dry ambient atmosphere in a clear glass desiccator. This setup allowed the compound's stability to be monitored without interference from atmospheric water (FIG. 2).

Series [2] has as its system Jurkat cells. The series can be described thus: Metabolic toxicity assay (WST-1) in Jurkat cells. To be noted: for LD50 / LD50 (metabolic toxicity): Jurkat cells, 24 hour incubation, WST-1. It is filed as cell-based. How it is done: FIGS. 7A, B and C show a) and b) the cell proliferation rate of HCT116 cells as a function of time in the presence of various concentrations of the exemplary compound, Telox-2 (confluency analysis); and c) the metabolic toxicity of the exemplary compound, Telox-2, in Jurkat cells as measured by reduction of WST-1. Cells were incubated with Telox-2 for 24 hours prior to a 30 minute exposure to WST-1.
A 96 well clear fluorometer plate was loaded with 200 μL of Jurkat cells at a culture density of 1×10^6 cells per mL. To each well was added an appropriate amount of a stock solution of Telox/Telox2 in sterile DMSO to reach a desired concentration of Telox/Telox2 (1-1000 micromole). The concentration of DMSO was 1% in all wells. Cells were allowed to incubate for 24 h at 37° C. under normal atmosphere, after which 20 μL of a commercially available solution of WST-1 in PBS (Roche Diagnostics, product #05015944001) was added to each well (gentle pipetting evenly distributed the reagent throughout the well). Cells were allowed to incubate for a further 0.5 h at 37° C. under normal atmosphere, followed by subsequent measurement of the absorbance of each well at 450 nm using a TECAN Safire 2 plate reader. Data was background corrected vs. wells that contained cell growth media (without cells), an appropriate concentration of Telox2, a final concentration of DMSO=1%, and WST-1. Background correction wells were incubated in the same manner as described for cell-positive wells.
To investigate the organotellurium compounds of study as potential probe moieties for MC, the metabolic toxicity of the compounds was evaluated. Organotellurium compounds are often described as toxic, with aryl telluroethers showing cellular toxicity below 100 μM across a range of cell lines under different assay conditions.^9-11,38,39 The toxicity of compounds 8-11 was investigated in a commonly used Jurkat cell line after a 24 hour incubation using the metabolic probe WST-1 (Roche Diagnostics, Laval, Quebec) as per manufacturer's instructions. As compounds 8, 9 and 10 are expected to show degradation over the time frame of the toxicity assay, based on the NMR stability studies, these experiments show the relative toxicity of the compounds and their resulting degradation products (Table 2). […] The LD50 values of the exemplary organotellurium compounds of the present application provide promise for their use as activity based MC probes since the general MC experiment can be achieved at concentrations of ˜100 μM.^5
For orientation: Formazan colour is commonly taken as a measure of viable cells.

Series [3] is described as follows: Solubility observations. In kind it is physicochemical.
Series [4] in a line: NMR degradation in 50/50 d-DMSO/PBS buffer, air and ambient light. Particulars: air, ambient lighting, room temperature. It is filed as physicochemical. The text has this: The ^19F NMR of compound 10 and ^1H NMR of compound 11 were taken at shown time points. Compound 10 used trifluoroacetic acid as the internal standard and compound 11 used d5-DMSO.
To further validate these compounds as potential MC mass tags, the degradation was also studied in a buffered aqueous solution by dissolving the compounds in a 50/50 solution of d-DMSO/PBS buffer. The compounds were kept in an environment exposed to air and ambient lighting at room temperature. ^19F NMR was used to study compound 10 using a trifluoroacetic acid internal standard while ^1H NMR was used to study the degradation compound 11 using the d5-DMSO internal standard. […] However, under the same conditions the tellurophene 11 was stable.

A short description of series [5]: Stability of the Telox telluroether (summary statement). In kind it is physicochemical.
Series [6] deals with HCT116 cells. As to the kind of experiment: Mass cytometry hypoxia labelling (130Te signal). It is filed as cell-based. The text has this: FIGS. 4A-E show a schematic representation and density maps and plots. FIG. 4A is a schematic representation of Telox/Telox2 cell labelling for analysis via mass cytometry on a second-generation CyTOF instrument. FIG. 4b) is a density map of signal event length vs. ^130Te signal (arbitrary units). FIG. 4c) is a density plot output from the top-right gate in b) of ^193Ir signal (arbitrary units) vs. ^103Rh signal (arbitrary units). More than 93% of detected events fall in the square gate. FIG. 4d) is a density plot output from the bottom-left gate in b) of ^193Ir signal (arbitrary units) vs. ^103Rh signal (arbitrary units). More than 89% of detected events fall in the square gate. FIG. 4e) is a population histograms of cell ^130Te content (arbitrary units). Oxygen concentrations are listed as numerical percentages, P=Pimonidazole (100 μM). Blue and red histograms are Pimonidazole-negative controls. Orange and green histograms are Pimonidazole- positive competition experiments. Note: warmer colors in density plots indicate higher cell population density.
FIGS. 8A and B show a) the absolute ^130Te signal as a function of concentration as determined by mass cytometry analysis of HCT116 cells incubated with the exemplary compound, Telox-2, for 3 hours in either near-anoxic (˜0% O2), hypoxic (˜1% O2) or normoxic (21% O2) atmosphere; and b) the signal-to-noise (fold-change) representation of the data presented in part a.
FIGS. 9A-D show a) Absolute ^130Te signal as a function of time as determined by mass cytometry analysis of HCT116 cells incubated with 10 μM of the exemplary compound,Telox-2 (constant exposure), in either near-anoxic (˜0% O2), hypoxic (˜1% O2) or normoxic (21% O2) atmosphere; b) the signal-to-noise (fold-change) representation of the data presented in part a; and c) the absolute ^130Te signal as a function of time as determined by mass cytometry analysis of HCT116 cells incubated with 10 μM Telox-2 for 3 hours followed by replacement of Telox-2-containing media with fresh media in either near-anoxic (˜0% O2), hypoxic (˜1% O2) or normoxic (21% O2) atmosphere; and d) the signal-to-noise (fold-change) representation of the data presented in part c.
HCT116 (500,000) cells were seeded in 60 mm plastic petri dishes (Corning Inc., NY) and incubated for 24 h at 37° C., 21% O2/5% CO2. The cells were transferred to hypoxia chambers (H35/H85 hypoxia workstation, Don Whitley Scientific) maintained at 1%/0.2% or <0.02% O2 for 3 h. Hypoxia experiments (<0.02% O2) were performed by seeding the cells in 60 mm glass plates (Corning Inc., NY).
HCT 116 cells (see sections i and ii) were incubated in media containing Telox or Telox2 (100 μM, added as a neat solution in sterile DMSO; final [DMSO]=0.1%) for 3 hours under atmosphere containing an appropriate concentration of O2. Following incubation, the media was removed, cells were washed with sterile PBS, and then separated from the incubation plate via trypsinization (37° C., 10 min) and gentle scraping. The cell suspension was pelleted and resuspended in PBS containing β-ME (1.0 mL, 100 mM). Cells were pelleted, resuspended in PBS (900 μL, no β-ME), and fixed with formaldehyde (100 μL, 37% solution) for 25 minutes. Following fixation, cells were pelleted, resuspended in PBS containing β-ME (1.0 mL, 100 mM), and pelleted once again. Cells were then resuspended in PBS ([…], no β-ME) and incubated with either the Ir-containing nucleic acid intercalator (hypoxic cells) or the Rh containing nucleic acid intercalator (normoxic cells) (10 μL, 100 μM solution in sterile PBS) for 20 minutes. Cells were then pelleted and resuspended in PBS (1.0 mL, no β-ME) twice. Cell pellets were then resuspended in PBS containing ^151/153EU beads (1/10 dilution of CyTOF® calibration beads, DVS Sciences, 1.0-2.5 mL depending on pellet size). The two cells samples were then combined (250 μL of each) and 250 μL of the resultant sample was injected onto a second-generation CyTOF® instrument for MC analysis. […]

The structures appear in SMILES notation.

For `C[Te]CCCO` [Compound 2, 3-methyltellanyl-1-propanol], in series [1], the “degradation over 24 hours (1H NMR)” value was “approximately 75%”.
The same measure, in the same setting: the value for `COC(=O)CC[Te]C` [Compound 3, methyl 3-methyltellanyl-propionate] was approximately 85%; that for `COC(=O)CCC[Te]C` [Compound 4, methyl 4-methyltellanyl-butanoate] was “approximately 15%”.
Consider `COC(=O)CCC[Te]C(F)(F)F` [Compound 5, methyl 4-((trifluoromethyl)tellanyl)butanoate], for which the “degradation over 24 hr incubation (1H NMR), in words” value (shortened to “degradation over 24 hr incubation”) in series [1] is given as “no degradation was observed”.
On the same count and under the same terms, the value for `O=C(O)CCc1ccc[te]1` [Compound 6] was “degraded insignificantly”; that for `OCCc1ccc[te]1` [Compound 7, 2-(tellurophen-2-yl)ethan-ol] was “degraded insignificantly”.
Consider `C[Te]CCCOC(=O)NCc1ccccc1` [Compound 8], for which, in series [2], the LD50 was 610 ± 290 µM and the “LD50 (metabolic toxicity)” value was determined as 610 µM. For the same molecule, the “solubility, in words” value in series [3] was “lack of solubility”.
For `C[Te]CCCC(=O)NCc1ccccc1` [Compound 9, N-benzyl-4-(methyltellanyl)butanamide], in series [2], the LD50 came out at 180 ± 60 µM.
As for `O=C(CCC[Te]C(F)(F)F)NCc1ccccc1` [Compound 10, N-benzyl-4-((trifluoromethyl)tellanyl)butamide], the LD50 in series [2] was found to be 130 ± 20 µM. In series [4] (19F NMR), the “degradation after 24 hours in d-DMSO/PBS” value was 60%. For the same molecule, in series [1], the “degradation over 24 hr incubation” value was “stable”.
In the case of `O=C(CCc1ccc[te]1)NCc1ccccc1` [Compound 11, N-benzyl-3-(tellurophen-2-yl)propanamide], in series [2], the LD50 stood at 280 ± 30 µM and the “LD50 (metabolic toxicity)” value stood at 280 µM. For the same molecule, the “stability in d-DMSO/PBS, in words” value in series [4] (1H NMR, 24 hours) is on record as “stable”. Besides, the “degradation over 24 hr incubation” value in series [1] is “stable”.
For `C[Te]CCCOC(=O)NCCNC(=O)Cn1ccnc1[N+](=O)[O-]` [Telox], the “metabolic LD50, in words” value in series [2] (Telox, summary statement) is reported as “close to the required assay concentration”. Moreover, in series [5], the “stability of telluroether functionality, in words” value is on record as “moderate stability”. The “detected events in the square gate, top-right (130Te) gate, 193Ir vs 103Rh” value in series [6] (FIG. 4c) was “More than 93%”. Besides, the “detected events in the square gate, bottom-left (130Te) gate, 193Ir vs 103Rh” value in series [6] (FIG. 4d) is listed as “More than 89%”.
